From US6855730B2, “3-methylidenyl-2-indolinone modulators of protein kinase” (Sugen, Inc., priority 1998, dated 2005)

Key:
[1] = target: T1, chimeric receptor having the extra-cellular domain of EGF-R and the intra-cellular domain of Her2 (Homo sapiens, UniProt P04626); assay: EGF-induced Her2-driven BrdU incorporation; format: cell-based; conditions: read-out: BrdU HER 2 driven IC50
T1 construct: fused on or other part: the same chimera
Experimental: The cellular/catalytic assays described herein are performed in an ELISA format. The general procedure is as follows: a compound is introduced to cells expressing the test kinase, either naturally or recombinantly, for a selected period of time after which, if the test kinase is a receptor, a ligand known to activate the receptor is added. The cells are lysed and the lysate is transferred to the wells of an ELISA plate previously coated with a specific antibody recognizing the substrate of the enzymatic phosphorylation reaction. Non-substrate components of the cell lysate are washed away and the amount of phosphorylation on the substrate is detected with an antibody specifically recognizing phosphotyrosine compared with control cells that were not contacted with a test compound. The cellular/biologic assays described herein measure the amount of DNA made in response to activation of a test kinase, which is a general measure of a proliferative response. The general procedure for this assay is as follows: a compound is introduced to cells expressing the test kinase, either naturally or recombinantly, for a selected period of time after which, if the test kinase is a receptor, a ligand known to activate the receptor is added. After incubation at least overnight, a DNA labeling reagent such as Bromodeoxyuridine (BrdU) or 3H-thymidine is added. The amount of labeled DNA is detected with either an anti-BrdU antibody or by measuring radioactivity and is compared to control cells not contacted with a test compound.
EGF-Induced Her2-Driven BrdU Incorporation
Protocol • (1) Cells-are seeded at 8000 cells/well in DMEM, 10% CS, 2mM Gln in a 96-well plate. Cells are incubated overnight at 37° C. in 5% CO2. • (2) After 24 hours, the cells are washed with PBS, and then are serum starved in serum free medium (0% CS DMEM with 0.1% BSA) for 24 hours. • (3) On day 3, ligand (EGF=2 nM, prepared in DMEM with 0.1% BSA) and test compounds are added to the cells simultaneously. The negative control wells receive serum free DMEM with 0.1% BSA only, the positive control cells receive the ligand (EGF) but no test compound. Test compounds are prepared in serum free DMEM with ligand in a 96 well plate, and serially diluted for 7 test concentrations. • (4) After 20 hours of ligand activation, diluted BrdU labeling reagent (1:100 in DMEM, 0.1% BSA) is added and the cells are incubated with BrdU (final concentration=10 μM) for 1.5 hours. • (5) After incubation with labeling reagent, the medium is removed by decanting and tapping the inverted plate on a paper towel. FixDenat solution is added (50 μl/well) and the plates are incubated at room temperature for 45 minutes on a plate shaker. • (6) The FixDenat solution is thoroughly removed by decanting and tapping the inverted plate on a paper towel. Milk is added (5% dehydrated milk in PBS, 200 μ/well) as a blocking solution and the plate is incubated for 30 minutes at room temperature on a plate shaker. • (7) The blocking solution is removed by decanting and the wells are washed once with PBS. Anti-BrdU-POD solution (1:100 dilution in PBS, 1% BSA) is added (100 μl/well) and the plate is incubated for 90 minutes at room temperature on a plate shaker. • (8) The antibody conjugate is thoroughly removed by decanting and rinsing the wells 5 times with PBS, and the plate is dried by inverting and tapping on a paper towel. • (9) TMB substrate solution is added (100 μl/well) and incubated for 20 minutes at room temperature on a plate shaker until color development is sufficient for photometric detection. • (10) The absorbance of the samples are measured at 410 nm (in “dual wavelength” mode with a filter reading at 490 nm, as a reference wavelength) on a Dynatech ELISA plate reader.

T1 sequence (P04626 676-1255 limits assumed, change not shown): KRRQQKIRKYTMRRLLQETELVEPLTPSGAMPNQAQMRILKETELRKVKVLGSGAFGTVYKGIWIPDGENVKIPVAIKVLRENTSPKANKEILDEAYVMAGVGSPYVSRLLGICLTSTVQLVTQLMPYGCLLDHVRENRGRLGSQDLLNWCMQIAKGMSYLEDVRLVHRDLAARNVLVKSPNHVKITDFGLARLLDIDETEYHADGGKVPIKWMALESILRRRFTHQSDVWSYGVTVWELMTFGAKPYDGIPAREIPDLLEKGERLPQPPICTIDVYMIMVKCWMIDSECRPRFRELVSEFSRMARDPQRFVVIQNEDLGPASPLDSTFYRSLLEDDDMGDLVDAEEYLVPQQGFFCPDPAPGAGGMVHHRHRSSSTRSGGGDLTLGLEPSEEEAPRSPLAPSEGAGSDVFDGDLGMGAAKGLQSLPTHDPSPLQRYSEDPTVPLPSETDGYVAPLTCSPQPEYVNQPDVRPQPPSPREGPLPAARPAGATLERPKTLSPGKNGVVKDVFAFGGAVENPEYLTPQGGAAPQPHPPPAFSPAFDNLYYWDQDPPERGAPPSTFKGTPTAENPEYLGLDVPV

Row | Structure (SMILES) | melting point | IC50 [1]
1 | COc1ccc2c(c1)NC(=O)/C2=C\c1[nH]c2c(c1CCC(=O)O)CCCC2 [Example 196, 3-[2-(6-Methoxy-2-oxo-1,2-dihydroindol-3-ylidenemethyl)-4,5,6,7-tetrahydro-1H-indol-3-yl]-propionic acid] | 263 to 266 °C | –
2 | COc1c(C(C)C)cc(/C=C2/C(=O)Nc3ccccc32)cc1C(C)C [Example 1, 3-(3,5-Diisopropyl-4-methoxybenzylidene)-1,3-dihydroindol-2-one] | – | 8.7 µM
